Test: half-life of thermal oxygen release (thermolysis) of endoperoxides in CDCl3 at 25° C.
Assay type: physicochemical
Settings: CDCL3, 25° C.
From the text: In certain aspect an oxygen generating biomaterial can comprise a fast release thermolytic endoperoxide, a slow release thermolytic endoperoxide, or a slow release thermolytic endoperoxide and a fast release endoperoxide. A biomaterial can further comprise a singlet oxygen quencher. […] The ti/2 half-life is temperature dependent. This aids in both storage and release. The ti/2 is longer the lower the storage temperatures. […] The endoperoxide oxygen-carrier is most conveniently prepared by photo-oxidation of a precursor aromatic organic compound. The structure of the endoperoxide-forming compound determines its thermal stability and thus how rapidly oxygen is released and precursor compound reformed (via a “retro-Diels-Alder reaction”) at any given temperature. At body temperature the half-life (ti/2) for thermal release of ^1O2 from an endoperoxide (also known as “thermolysis”) can range from seconds to days. By combining two or more endoperoxide compounds, one with a relatively slow release rate (long ti/2) at the working temperature, and one or more with faster release rates (short ti/2), it is possible to form delivery systems with a wide range of rates, durations, and profiles of oxygen generation to suit a variety of end-use applications. In some applications it is possible to design a system that could be recharged by photo-oxidizing the reformed precursor compound(s). FIG. 1 illustrates an example of the chemistry involved.

Row | Structure (SMILES) | ti/2 in hours as measured in the presence of CDCL3 at 25° C.
1 | CC1=C(C)C2(C)OOC1(C)c1ccccc12 [1,2,3,4-tetramethylnaphthalene-1,4-endoperoxide] | indeterminant
2 | CC1=CC2(C)OOC1(C)c1ccccc12 (centres unmarked) [1,2,4-trimethylnaphthalene-1,4-endoperoxide] | 70 h
3 | Cc1cccc2c1C1(C)C=CC2(C)OO1 (centres unmarked) [1,4,5-trimethylnaphthalene-1,4-endoperoxide] | 290 h
4 | CC12C=CC(C)(OO1)c1ccccc12 [1,4-dimethylnaphthalene-1,4-endoperoxide] | 5 h
5 | Cc1cccc2c1C1(C)C=CC2OO1 (centres unmarked) [1,8-dimethylnaphthalene-1,4-endoperoxide] | 30 h

Source: patent US10561763B2, “Oxygen generating biomaterial” (THE BOARD OF REGENTS OF THE UNIVERSITY OF TEXAS SYSTEM, priority 2013, dated 2020)
